Earlier results in patent US20170239214A1, “COMPOSITION FOR PREVENTING OR TREATING OBESITY CONTAINING ALPHA-LIPOIC ACID AND N-ACETYLCYSTEINE AS ACTIVE INGREDIENTS” (The Asan Foundation, priority 2015, published 2017).

What was measured:
[1] = rats
[2] = mice

Row | Structure (SMILES) | improving insulin resistance [1] | inhibiting a weight gain [1] | appetite suppressant effect [2]
1 | CC(=O)N[C@@H](CS)C(=O)O [N-acetylcysteine] | improving insulin resistance | significant effects of inhibiting a weight gain | 
2 | O=C(O)CCCCC1CCSS1 (stereo not drawn) [α-lipoic acid] |  |  | pronounced appetite suppressant effect
